Results from PubChem BioAssay AID2305 (GlaxoSmithKline (GSK), 2010).
pIC50: −log10 of the molar value.

System: P. falciparum 3D7 growth, pLDH absorbance
Assay: blood-stage malaria parasite growth potency – strain 3D7, dose response (AID 2305)

| SMILES | pIC50 |
| --- | --- |
| O=C(Nc1ccc(-c2cccc(-c3nc4ccc(C(F)(F)F)cc4[nH]3)c2)cc1)Nc1ccc(F)c(F)c1F | 6.15 |
| O=C(NC1CCN(Cc2ccccc2)CC1)c1ccc(-c2nc3cc(Cl)c(Cl)cc3[nH]2)s1 | 6.51 |
| OC(CNCc1ccccc1Oc1ccccc1)c1cc(Br)cs1 (stereo not drawn) | 5.95 |
| CCCCCOc1c(CCC)cc(Cc2cnc(N)nc2N)cc1CCC | 6.05 |
| Cc1nc(N)nc(N)c1-c1cccc(Cl)c1 | 5.93 |
| O=C(Nc1cccc(C(F)(F)F)c1)c1ccc(S(=O)(=O)NCC2CCCN2CC2CCCCC2)cc1 (stereo not drawn) | 6.12 |
| Cc1nc(N)nc(N)c1CCCOc1ccccc1Cl | 6.66 |
| CSc1ccc(NC(=O)Nc2cc(C)nc3ccccc23)cc1 | 6.15 |
| CCOc1ccc(-n2nc3c(Cl)nnc(-c4ccccc4)c3c2-c2ccccc2)cc1 | 6.64 |
| COc1ccccc1N1CCN(CCCCN(C(=O)Nc2cccc(Cl)c2)C(=O)Nc2cccc(Cl)c2)CC1 | 6.15 |
| O=C(Nc1ccc(Cl)cc1)c1cccc2[nH]c(C(F)(F)F)nc12 | 6.12 |
| Cc1nc2nc(N)nc(N)c2c(C)c1Cc1cccc(F)c1 | 6.47 |
| O=C(Nc1ccc(SC(F)(F)F)cc1)Nc1ccnc2ccccc12 | 6.12 |
| Fc1cccc(Cn2ncc3cc(Nc4ncnc5sc(C#Cc6ncc[nH]6)cc45)ccc32)c1 | 5.74 |
| CC(C)(Oc1c(C2CCN(CCCCNC(=O)c3ccc(-c4ccc(Cl)cc4)cc3)CC2)ccc2c1CCCC2)C(N)=O | 5.96 |
| O=C(N[C@@H](CC1CCCCC1)C(=O)NC1CC1)c1ccc(O)c(-c2cccc(C(F)(F)F)c2)c1 | 6.11 |
| CCCN(Cc1ccc(OCC)cc1)Cc1cc(=O)c2cc(Cl)ccc2[nH]1 | 5.90 |

| SMILES | pIC50 |
| --- | --- |
| COc1cc2nc(NCC3CCN(C(=O)c4ccc(-c5ccc(C(=O)N(C)C)cc5C)cc4)CC3)nc(N)c2cc1OC | 6.02 |
| CC[C@H]1CN2CC[C@H]1C[C@H]2[C@H](O)c1cc(-c2cccc(C)c2)nc2ccc(OC)cc12 | 6.80 |
| O=C(Nc1cccc(C(F)(F)F)c1)c1ccc(S(=O)(=O)NC2CCN(CC3CCCCC3)C2)cc1 (stereo not drawn) | 6.10 |
| O=C(Nc1cccc(C(F)(F)F)c1)NC1CCN(c2ccnc3cc(Cl)ccc23)CC1 | 6.54 |
| Cc1nc(N)nc(N)c1CCCOc1cccc(Cl)c1 | 6.32 |
| CCNC[C@H]1CCCN1CCOc1ccc(-n2cnc3cc(-c4ccc(Cl)cc4)sc3c2=O)cc1OC | 6.09 |
| Cc1ccc(C)c2sc(N3CCN(C(=O)c4ccc([N+](=O)[O-])o4)CC3)nc12 | 6.09 |
| O=C(c1ccc(Cl)cc1Cl)N1CCCC(C(F)(F)F)C1 (stereo not drawn) | 6.02 |
| Cn1nccc1C(=O)NCCNCc1cccc(-c2ccc(-c3nc4ccc(C(F)(F)F)cc4[nH]3)cc2)c1 | 6.92 |
| O=C(Nc1cc(Cl)cc(Cl)c1)c1cc(Cl)c(=O)n(Cc2cccc(Cl)c2)c1 | 6.12 |
| COc1cc2nccc(Nc3cc(C)cc(O)c3)c2cc1OC | 6.04 |
| CC(C)(C)CN1C(=O)C(c2ccccc2)(c2ccccc2)N=C1N | 6.28 |
| CC(=O)N(Cc1nc(-c2cc(Cl)c(Cl)s2)cs1)c1c(C)cccc1C | 6.48 |
| CC(C)NCc1ccc(-c2cccc(CN3CCC(c4ccccc4)CC3)c2)c(C(=O)NCC2CCCCC2)c1 | 6.07 |
| N=C1SC(=Cc2cn[nH]c2-c2ccc(F)cc2)C(=O)N1c1nccs1 | 6.66 |
| CCN(CC)CCCCOc1ccc2c(c1)C(=O)c1cc(OCCCCN(CC)CC)ccc1-2 | 6.12 |
